Data reported in patent US5116985A, “Isoquinoline derivatives and salts thereof” (priority 1989, dated 1992).
Structures can show the parent of a compound that is named as a salt.

How the values were obtained:
trypsin [1] = target: T1, trypsin (Bos taurus, UniProt P00760); experiment: Inhibition of trypsin hydrolysis of TAME (p-tosylarginine methyl ester), in vitro; type: biochemical; settings: TAME substrate, 1.5 μg of trypsin, 37° C., 10 minutes; read-out: 50% inhibitory concentration, substrate TAME
T1 sequence (P00760 24-246): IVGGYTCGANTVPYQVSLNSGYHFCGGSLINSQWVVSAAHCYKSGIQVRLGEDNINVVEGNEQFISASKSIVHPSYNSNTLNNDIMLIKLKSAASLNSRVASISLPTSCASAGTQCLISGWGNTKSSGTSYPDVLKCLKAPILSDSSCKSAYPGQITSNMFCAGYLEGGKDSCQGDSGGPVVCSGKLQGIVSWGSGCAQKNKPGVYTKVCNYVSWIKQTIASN
Protocol: (§1) The inhibitory activity on trypsin in vitro was determined by the methods of Muramatsu, et al. described in the Journal of Biochemistry, 58, 214 (1965).

trypsin [2] = target: T1, trypsin; experiment: Inhibition of trypsin hydrolysis of casein, in vitro; type: biochemical; settings: casein substrate, 20 μg of trypsin, 37° C., 10 minutes; read-out: 50% inhibitory concentration, substrate casein
Protocol: as §1

SMILES | IC50 (trypsin [1]) | IC50 (trypsin [2])
N=C(N)Nc1ccc(C(=O)Oc2cccc3c(C(N)=O)nccc23)cc1 [Compound No. 6, 1'-Carbamoyl-5'-isoquinolyl 4-guanidinobenzoate methanesulfonate hemihydrate] | 56 nM | 160 nM
CCCOC(=O)c1nccc2c(OC(=O)c3ccc(NC(=N)N)cc3)cccc12 [Compound No. 8, 1'-Propoxycarbonyl-5'-isoquinolyl 4-guanidinobenzoate methanesulfonate] | 96 nM | 160 nM
N=C(N)Nc1ccc(C(=O)Oc2cccc3cnccc23)cc1 [Compound No. 1, 5-Isoquinolyl 4-guanidinobenzoate dimethanesulfonate monohydrate] | 56 nM | 130 nM
CC(C)OC(=O)c1nccc2c(OC(=O)c3ccc(NC(=N)N)cc3)cccc12 [Compound No. 9, 1'-Isopropoxycarbonyl-5'-isoquinolyl 4-guanidinobenzoate hydrochloride] | 130 nM | 160 nM
CC(=O)c1nccc2c(OC(=O)c3ccc(NC(=N)N)cc3)cccc12 [Compound No. 4, 1'-Acetyl-5'-isoquinolyl 4-guanidinobenzoate hydrochloride] | 57 nM | 140 nM
N#Cc1nccc2c(OC(=O)c3ccc(NC(=N)N)cc3)cccc12 [Compound No. 3, 1'-Cyano-5'-isoquinolyl 4-guanidinobenzoate methanesulfonate monohydrate] | 56 nM | 140 nM
CN(C)C(=O)COC(=O)c1nccc2c(OC(=O)c3ccc(NC(=N)N)cc3)cccc12 [Compound No. 12, 1'-(N,N-Dimethylcarbamoyl)methoxycarbonyl-5'-isoquinolyl 4-guanidinobenzoate hydrochloride] | 66 nM | 140 nM
N=C(N)Nc1ccc(C(=O)Oc2cccc3c(O)nccc23)cc1 [Compound No. 2, 1'-Hydroxy-5'-isoquinolyl 4-guanidinobenzoate methanesulfonate] | 64 nM | 140 nM
CCOC(=O)c1ccc(OC(=O)CCCCCNC(=N)N)cc1 [Gabexate mesylate, Ethyl 4-(6-guanidinohexanoyloxy)benzoate methanesulfonate, reference compound] | 15000 nM | 2200 nM
CCCCOC(=O)c1nccc2c(OC(=O)c3ccc(NC(=N)N)cc3)cccc12 [Compound No. 10, 1'-Butoxycarbonyl-5'-isoquinolyl 4-guanidinobenzoate hydrochloride monohydrate] | 150 nM | 210 nM
N=C(N)Nc1ccc(C(=O)Oc2cccc3c(C(=O)O)nccc23)cc1 [Compound No. 5, 1'-Carboxy-5'-isoquinolyl 4-guanidinobenzoate quarterhydrate] | 64 nM | 170 nM
N=C(N)Nc1ccc(C(=O)Oc2cccc3c(C(=O)OCc4ccccc4)nccc23)cc1 [Compound No. 11, 1'-Benzyloxycarbonyl-5'-isoquinolyl 4-guanidinobenzoate hydrochloride monohydrate] | 340 nM | 410 nM
CCOC(=O)c1nccc2c(OC(=O)c3ccc(NC(=N)N)cc3)cccc12 [Compound No. 7, 1'-Ethoxycarbonyl-5'-isoquinolyl 4-guanidinobenzoate hydrochloride] | 56 nM | 120 nM
CN(C)C(=O)COC(=O)Cc1ccc(OC(=O)c2ccc(NC(=N)N)cc2)cc1 [Camostat mesylate, N,N-Dimethylcarbamoylmethyl -p-( -p-guanidinobenzoyloxy)phenylacetate methanesulfonate, reference compound] | 65 nM | 140 nM
